Usually IC50 stands for the concentration needed to halve the response being measured.

Where two headings read alike, the source gives them in different places. A value given as a limit tells only on which side of the number the result lay.

Assay type in all cases: biochemical
One test deals with T1, GPRTase from G. lamblia (Giardia duodenalis, UniProt Q24973).
T1 sequence (Q24973 1-230): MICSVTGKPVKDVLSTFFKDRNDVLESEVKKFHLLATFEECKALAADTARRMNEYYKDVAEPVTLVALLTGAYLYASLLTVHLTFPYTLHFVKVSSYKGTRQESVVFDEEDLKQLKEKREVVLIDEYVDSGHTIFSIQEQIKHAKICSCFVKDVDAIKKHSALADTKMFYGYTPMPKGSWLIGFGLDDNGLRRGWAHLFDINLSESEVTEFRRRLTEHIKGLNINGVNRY
Description: Enzyme assay, [14C]-guanine to GMP conversion, G. lamblia GPRTase. The conditions noted are these: recombinant enzyme, 10% DMSO, 37° C., 5 min, pH 6.8, read-out: IC50 GLG (GPRTase from G. lamblia). On the procedure:
(§1) Protocol For Testing Compounds of Formula I Against Tritrichomonas foetus HGXPRTase, Giardia lamblia GPRTase and Human HGPRTase
(§2) The enzyme assay mixture, in a final volume of 20 μl, consisted of the following:
(§3) Bis-Tris-HCl, pH 6.8 0.3 M
(§4) 5-Phospho-1-ribosylpyrophosphate 0.1 mM
(§5) [^14 C]-guanine (46 mCi/mmole) 22 μM
(§6) Thus, all the assay mixtures contain 10% DMSO.
(§7) The recombinant enzyme, purified to homogeneity in the native form, was diluted in a buffer solution of 50 mM Bis-Tris-HCl, pH 6.8, 6 mM MgCl2, and 1 mM dithiothreitol to a final concentration of 34 μg enzyme protein per ml. […] enzyme solution was added to the 20 μl reaction mixture, and maintained at 37° C., to start the enzyme-catalyzed reaction. The reaction was allowed to proceed at 37° C. for exactly 5 min, and then stopped by adding 23 μl of 1 mM guanine and 1 mM GMP to the reaction mixture.
(§8) Twenty μl of the final mixture was spotted on a polyethyleneimine-cellulose thin layer plate and chromatographed with 5 mM ammonium acetate pH 5.0. The unreacted [^14 C]-guanine migrated at the forefront of the chromatography with an Rf value of 0.62, whereas the product [^14 C]-GMP remained at the origin due to the negative charge of the molecule at pH 5.0. The spots of guanine and GMP were cut out from the plate, and the radioactivity in each spot measured with a Beckman LS-3801 scintillation counter. The radioactivities associated with the GMP and diminished from the guanine sample were used to calculate the amount of substrate converted to product within a unit time period.
(§9) Protocol For Testing Compounds of Formula II Against Tritrichomonas foetus HGXPRTase Giardia lamblia GPRTase and Human HGPRTase
(§10) The recombinant enzyme, purified to homogeneity in the native form, was diluted in a buffer solution of 50 mM Bis-Tris-HCl, pH 6.8, 6 mM MgCl2, and 1 mM dithiothreitol to a final concentration of 34 μg enzyme protein per ml. Two and one half μl of the diluted enzyme solution was added to the 20 μl reaction mixture, and maintained at 37° C., to start the enzyme-catalyzed reaction. The reaction was allowed to proceed at 37° C. for exactly 5 min, and then stopped by adding 23 μl of 1 mM guanine and 1 mM GMP to the reaction mixture.

The target in another test is T2, HGXPRTase from T. foetus (Tritrichomonas foetus, UniProt P51900).
T2 construct: made in house; host or cells: Escherichia coli
T2 sequence (P51900 1-183): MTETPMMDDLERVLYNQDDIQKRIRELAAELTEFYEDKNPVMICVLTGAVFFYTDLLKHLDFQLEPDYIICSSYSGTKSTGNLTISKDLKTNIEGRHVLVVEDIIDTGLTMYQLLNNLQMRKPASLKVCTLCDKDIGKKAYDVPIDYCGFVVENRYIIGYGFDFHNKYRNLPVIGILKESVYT
In words: Enzyme assay, [14C]-guanine to GMP conversion, T. foetus HGXPRTase. Conditions: read-out: IC50 TFH (HGXPRTase from T. foetus). On the procedure: as §1, §2, §3, §4, §5, §6, §7, §8, §9, §10

The next test concerns the target T3, Human HGPRTase (Homo sapiens, UniProt P00492).
T3 sequence (P00492 1-218): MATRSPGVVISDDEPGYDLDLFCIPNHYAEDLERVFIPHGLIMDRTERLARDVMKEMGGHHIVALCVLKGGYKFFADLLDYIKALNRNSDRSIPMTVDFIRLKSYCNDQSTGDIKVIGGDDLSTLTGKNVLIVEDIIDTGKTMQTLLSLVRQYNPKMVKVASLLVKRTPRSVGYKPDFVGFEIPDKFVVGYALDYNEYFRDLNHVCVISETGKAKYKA
In words: Enzyme assay, [14C]-guanine to GMP conversion, human HGPRTase. The conditions noted are these: recombinant enzyme, 10% DMSO, 37° C., 5 min, pH 6.8, read-out: IC50 HH (Human HGPRTase). How it is done: as §1, §2, §3, §4, §5, §6, §7, §8, §9, §10

Where [1] appears, read: Table 2, compounds of Formula I.
[2] abbreviates: Table 2, compounds of Formula I, recombinant enzyme, 10% DMSO, 37° C., 5 min, pH 6.8.
[3] abbreviates: Table 4, compounds of Formula II.
[4] abbreviates: Table 4, compounds of Formula II, recombinant enzyme, 10% DMSO, 37° C., 5 min, pH 6.8.

In the case of `O=C1Nc2ccccc2C1=NNc1ccc([N+](=O)[O-])cc1` [(I)1, 3-(4-nitrophenylhydrazono)-1,3-dihydroindol-2-one], the values for the half-inhibitory concentration (IC50) at GPRTase from G. lamblia (setting [1]), at HGXPRTase from T. foetus (setting [2]) and on Human HGPRTase (setting [1]) were above 1000 µM, 240 µM and 0.2 mM, respectively.
Regarding `O=C1Nc2ccccc2C1=NN=Cc1ccc([N+](=O)[O-])cc1` [(I)2, 3-(4-nitrophenylidenehydrazono)-1,3-dihydroindol-2-one], the IC50 was above 1000 µM at GPRTase from G. lamblia (setting [1]), 50 µM at HGXPRTase from T. foetus (setting [2]) and above 1 mM on Human HGPRTase (setting [1]).
For the compound `O=C1Nc2ccccc2C1=NN=Cc1ccc(Cl)cc1` [(I)3, 3-(4-chlorophenylidenehydrazono)-1,3-dihydroindol-2-one], the IC50 was above 1000 µM at GPRTase from G. lamblia (setting [1]), 170 µM on HGXPRTase from T. foetus (setting [2]) and above 1 mM at Human HGPRTase (setting [1]).
Turning to `O=C1Nc2ccccc2C1=NN=Cc1cc(Cl)cc(Cl)c1O` [(I)4, 3-(2-hydroxy-3,5-dichlorophenylidenehydrazono)-1,3-dihydroindol-2-one], the concentration for half-maximal inhibition (IC50) at GPRTase from G. lamblia (setting [1]) and on HGXPRTase from T. foetus (setting [2]) was above 1000 µM each time.
On to `O=C1Nc2ccccc2C1=NN=Cc1cc(Br)ccc1O` [(I)5, 3-(2-hydroxy-5-bromophenylidenehydrazono)-1,3-dihydroindol-2-one], for which the IC50 on GPRTase from G. lamblia (setting [1]) was above 1000 µM; at HGXPRTase from T. foetus (setting [2]), 460 µM; at Human HGPRTase (setting [1]) it was above 1 mM.
Regarding `O=C1Nc2ccc(Br)cc2C1=NN=Cc1ccc(Cl)c(Cl)c1` [(I)6, 3-(3,4-dichlorophenylidenehydrazono)-5-bromo-1,3-dihydroindol-2-one], the IC50 on GPRTase from G. lamblia (setting [1]) was above 1000 µM; on HGXPRTase from T. foetus (setting [2]), 300 µM; at Human HGPRTase (setting [1]) it was above 1 mM.
With `COc1ccc(CCNC=C2C(=O)Nc3ccccc32)cc1` [(I)7], the figures for the IC50 at GPRTase from G. lamblia (setting [1]), at HGXPRTase from T. foetus (setting [2]) and at Human HGPRTase (setting [1]) were above 1000 µM, 200 µM and above 1 mM, respectively.
For `O=C(COc1ccc([N+](=O)[O-])cc1)NN=C1C(=O)Nc2ccccc21` [(I)8], in that order: above 1000 µM, 180 µM and above 1 mM.
Regarding `CC(Oc1ccc(Cl)cc1Cl)C(=O)NN=C1C(=O)Nc2ccc(Br)cc21` (centres unmarked) [(I)9, 3-[2-(2,4-dichlorophenoxy)propanoylhydrazono]-5-bromo-1,3-dihydroindol-2-one], the values for the 50% inhibitory concentration (IC50) at GPRTase from G. lamblia (setting [1]), at HGXPRTase from T. foetus (setting [2]) and at Human HGPRTase (setting [1]) were 30 µM, 85 µM and above 1 mM, respectively.
Regarding `COc1ccc(CC(=O)N/N=C2\C(=O)Nc3ccc(Br)cc32)cc1OC` [(I)10, 3-[(3,4-dimethoxyphenyl)acetylhydrazono]-5-bromo-1,3-dihydroindol-2-one], the values for the IC50 at GPRTase from G. lamblia (setting [1]), on HGXPRTase from T. foetus (setting [2]) and on Human HGPRTase (setting [1]) were 90 µM, 320 µM and above 1 mM, respectively.
In the case of `O=C(Nc1cccc([N+](=O)[O-])c1)c1ccc2c(c1)C(=O)OC2=O` [(II)1, 5-[N-(3-nitrophenyl)carbamoyl]-1,3-isobenzofurandione], the half-maximal inhibitory concentration (IC50) is above 1000 µM at GPRTase from G. lamblia (setting [3]), 300 µM on HGXPRTase from T. foetus (setting [4]) and above 1 mM on Human HGPRTase (setting [3]).
For `CC(=O)Nc1ccc(NC(=O)c2ccc3c(c2)C(=O)OC3=O)cc1` [(II)2, 5-[N-(4-acetamidophenyl)carbamoyl]-1,3-isobenzofurandione], in that order: above 1000 µM, 140 µM and above 1 mM.
On to `O=C(Nc1ccc(Cl)c(Cl)c1)c1ccc2c(c1)C(=O)OC2=O` [(II)3, 5-[N-(3,4-dichlorophenyl)carbamoyl]-1,3-isobenzofurandione], for which the concentration for half-maximal inhibition (IC50) at GPRTase from G. lamblia (setting [3]) is 30 µM; on HGXPRTase from T. foetus it was 50 µM; at Human HGPRTase (setting [3]), above 1 mM.
Consider `COc1ccc([N+](=O)[O-])cc1NC(=O)c1ccc2c(c1)C(=O)OC2=O` [(II)4, 5-[N-(2-methoxy-5-nitrophenyl)carbamoyl]-1,3-isobenzofurandione], for which the 50% inhibitory concentration (IC50) was 500 µM at GPRTase from G. lamblia (setting [3]), 70 µM at HGXPRTase from T. foetus (setting [4]) and above 1 mM on Human HGPRTase (setting [3]).
On to `O=C(Nc1ccc(Cl)cc1Cl)c1ccc2c(c1)C(=O)OC2=O` [(II)5, 5-[N-(2,4-dichlorophenyl)carbamoyl]-1,3-isobenzofurandione], for which the IC50 on GPRTase from G. lamblia (setting [3]) is 200 µM; at HGXPRTase from T. foetus (setting [4]), 80 µM; at Human HGPRTase (setting [3]), above 1 mM.
`COc1ccc(Cl)cc1NC(=O)c1ccc2c(c1)C(=O)OC2=O` [(II)6, 5-[N-(2-methoxy-5-chlorophenyl)carbamoyl]-1,3-isobenzofurandione]: the IC50 on GPRTase from G. lamblia (setting [3]) is 750 µM; at HGXPRTase from T. foetus (setting [4]) it was 22 µM; on Human HGPRTase (setting [3]) it was above 1 mM.
Take `O=C(Nc1ccc2c(c1)C(=O)OC2)c1ccc(Cl)cc1` [(II)7, 5-[N-(4-chlorophenyl)carbonylamino]-3-isobenzofuranone]: the IC50 is above 1000 µM at GPRTase from G. lamblia (setting [3]), 380 µM on HGXPRTase from T. foetus (setting [4]) and above 1 mM at Human HGPRTase (setting [3]).
With `O=C1NC(=O)c2cc([N+](=O)[O-])c(SCc3ccc(Cl)cc3)cc21` [(II)8, 5-[N-(4-chlorophenyl)methylthio]-6-nitrophthalimide], the IC50 on GPRTase from G. lamblia (setting [3]) is above 1000 µM; at HGXPRTase from T. foetus (setting [4]), 425 µM; at Human HGPRTase (setting [3]) it was above 1 mM.
